From patent US20250059196A1 (SHANGHAI HANSOH BIOMEDICAL CO., LTD., priority 2021, published 2025)
Like-named read-outs stand apart in the source and are kept apart here.

Experiments:
[1] = target: Recombinant human MALT1/MLT protein (Homo sapiens (Human), UniProt Q9UDY8); assay: Inhibitory effect on MALT1 enzyme activity (Ac-LRSR-AMC substrate, fluorescence 460 nm); format: biochemical; details: 10 nM FL MALT1, Ac-LRSR-AMC substrate, 50 min pre-incubation, 4 h reaction
Procedure: Ac-LRSR-AMC was used as the substrate to test the IC50 of the inhibitory activity of compounds on MALT1 enzyme activity at their Km concentration.
Ac-LRSR-AMC was used as the substrate which was digested by MALT1 to produce products, which produced fluorescence that could be detected at 460 nm. The highest concentration of the compound detected was 1000 nM, 3-fold dilution, a total of 11 concentrations (1000 nM-0.017 nM). The reaction system is 10 nM FL MALT1 protein, […] Ac-LRSR-AMC, 50 mM Tris pH 7.5, 0.6M Citrate, 1 mM DTT, 1 mM EDTA, 0.05% BSA and 1.5% DMSO. The compound and the enzyme were pre-incubated at room temperature for 50 min. The substrate was then added and the reaction was carried out for 4 h.
The original data (460 nm reading) was calculated according to the following formula to obtain the inhibition rate.
(§1) Log(inhibitor) vs. response—Variable slope (four parameters) in GraphPad Prism 6 was used to perform fitting equation analysis on compound concentration and corresponding inhibition rate, the curve was fit and compound IC50 value was obtained.
(§2) The fitting calculation equation is Y=Bottom+(Top−Bottom)/(1+10^((Log IC50−X)*HillSlope))

[2] = tested on: OCI-Ly3 cells; assay: Inhibition of proliferation of OCI-Ly3 cells (CellTiter-Glo); format: cell-based, human; details: 96 h incubation, read-out: Inhibition test of proliferation of OCI-Ly3 cells IC50
Procedure: The compound's inhibitory effect on the proliferation of TMD8 and OCI-Ly3 cells was evaluated through cell proliferation inhibition experiments.
The compound's inhibitory effect on the proliferation of TMD8 and OCI-Ly3 cells was detected by the CellTiter-Glo method. The highest concentration of the compound detected was 1000 nM, 3-fold dilution, a total of 9 concentrations (1000 nM-0.15 nM). After the cells were plated at an appropriate density, compounds were added the next day and incubated for 96 h before detection using the CellTiter-Glo Luminescent detection kit.
as §1, §2

Chain of Recombinant human MALT1/MLT protein (Q9UDY8 whole entry): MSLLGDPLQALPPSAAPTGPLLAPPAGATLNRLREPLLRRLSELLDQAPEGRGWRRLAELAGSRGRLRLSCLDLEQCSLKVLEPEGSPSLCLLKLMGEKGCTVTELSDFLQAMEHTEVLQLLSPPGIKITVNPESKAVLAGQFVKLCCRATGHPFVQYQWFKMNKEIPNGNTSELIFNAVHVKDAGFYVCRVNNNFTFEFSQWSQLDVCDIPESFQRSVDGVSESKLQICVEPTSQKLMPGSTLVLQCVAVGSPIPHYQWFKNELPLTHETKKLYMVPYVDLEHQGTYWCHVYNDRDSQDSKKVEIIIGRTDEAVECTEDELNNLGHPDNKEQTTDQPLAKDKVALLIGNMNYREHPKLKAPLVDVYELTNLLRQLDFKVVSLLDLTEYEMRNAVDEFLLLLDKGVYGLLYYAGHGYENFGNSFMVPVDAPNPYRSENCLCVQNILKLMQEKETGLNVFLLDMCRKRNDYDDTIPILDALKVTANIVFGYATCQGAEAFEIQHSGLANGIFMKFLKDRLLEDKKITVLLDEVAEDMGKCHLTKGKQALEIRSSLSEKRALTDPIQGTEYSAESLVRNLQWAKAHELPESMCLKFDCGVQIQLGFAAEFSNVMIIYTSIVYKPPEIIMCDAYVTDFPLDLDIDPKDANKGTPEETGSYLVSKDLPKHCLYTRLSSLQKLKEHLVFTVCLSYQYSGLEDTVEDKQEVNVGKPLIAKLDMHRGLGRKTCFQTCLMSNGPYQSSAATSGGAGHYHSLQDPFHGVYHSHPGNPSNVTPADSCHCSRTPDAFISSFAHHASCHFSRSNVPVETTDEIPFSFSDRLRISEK

Row | Compound | IC50 [1] | IC50 ([2]; Homo sapiens) | IC50 [2]
1 | O=C(Nc1ccnc(C(F)(F)F)c1)c1cnn(-c2ccc3c4c(cccc24)OC3)c1C(F)(F)F [Example 15, 1-(2H-naphthalene [1,8-bc]furan-5-yl)-5-trifluoromethyl-N-(2-trifluoromethyl-pyridin-4-yl)-1H-pyrazole-4-carboxamide] | 169 nM |  | 
2 | N#Cc1ccnn1-c1ncc(NC(=O)c2cnn(-c3ccc4c5c(cccc35)C(=O)N4)c2C(F)(F)F)cc1C(F)(F)F [Example 32] |  | 266 nM | 
3 | O=C(Nc1cnc(-c2ncco2)c(C(F)(F)F)c1)c1cnn(-c2ccc3c4c(cccc24)C(=O)N3)c1C(F)(F)F [Example 34, N-(6-(oxazol-2-yl)-5-(trifluoromethyl)pyridin-3-yl)-1-(2-carbonyl-1,2-dihydrobenzo[cd]indol-6-yl)-5-(trifluoromethyl)-1H-pyrazole-4-carboxamide] |  | 212 nM | 
4 | Cc1nc(-c2ncc(NC(=O)c3cnn(-c4ccc5c6c(cccc46)C(=O)N5)c3C(F)(F)F)cc2C(F)(F)F)oc1C [Example 35, N-(6-(4,5-dimethyloxazol-2-yl)-5-(trifluoromethyl)pyridin-3-yl)-1-(2-carbonyl-1,2-dihydrobenzo[cd]indol-6-yl)-5-(trifluoromethyl)-1H-pyrazole-4-carboxamide] |  | 263 nM | 
5 | Cn1ccc(-c2ncc(NC(=O)c3cnn(-c4ccc5c6c(cccc46)C(=O)N5)c3C(F)(F)F)cc2C(F)(F)F)n1 [Example 37, N-(6-(1-methyl-1H-pyrazol-3-yl)-5-(trifluoromethyl)pyridin-3-yl)-1-(2-oxo-1,2-dihydrobenzo[cd]indol-6-yl)-5-(trifluoromethyl)-1H-pyrazole-4-carboxamide] | 48 nM |  | 
6 | O=C(Nc1cnc(-n2cccn2)c(Cl)c1)c1cnn(-c2ccc3c4c(cccc24)C(=O)N3)c1C(F)(F)F [Example 44] | 80 nM |  | 149 nM
7 | Cn1cnc(-c2ncc(NC(=O)c3cnn(-c4ccc5c6c(cccc46)C(=O)N5)c3C(F)(F)F)cc2Cl)n1 [Example 45] | 123 nM |  | 
8 | Cc1ncnn1-c1ncc(NC(=O)c2cnn(-c3ccc4c5c(cccc35)C(=O)N4)c2C(F)(F)F)cc1Cl [Example 47] | 123 nM |  | 
9 | O=C(Nc1ccc(-n2cccn2)c(C(F)(F)F)c1)c1cnn(-c2ccc3c4c(cccc24)C(=O)N3)c1C(F)(F)F [Example 51, N-(4-(1H-pyrazol-1-yl)-3-(trifluoromethyl)phenyl)-1-(2-carbonyl-1,2-dihydrobenzo[cd]indol-6-yl)-5-(trifluoromethyl)-1H-pyrazole-4-carboxamide] |  | 83 nM | 
10 | O=C(Nc1cnc(-n2nccn2)c(Cl)c1)c1cnn(-c2ccc3c4c(cccc24)C(=O)N3)c1C(F)F [Example 67, N-(6-(2H-1,2,3-triazol-2-yl)-5-chloropyridin-3-yl)-5-difluoromethyl-1-(2-oxo-1,2-dihydrobenzo[cd]indol-6-yl)-1H-pyrazole-4-carboxamide] | 48 nM |  | 
11 | O=C(Nc1ccc(-n2cccn2)c(C(F)(F)F)c1)c1cnn(-c2cnc3c4c(cccc24)C(=O)N3)c1C(F)(F)F [Example 74, N-(4-(1H-pyrazol-1-yl)-3-(trifluoromethyl)phenyl)-1-(2-carbonyl-1,2-dihydropyrrolo[4,3,2-ij]isoquinolin-6-yl)-5-(trifluoromethyl)-1H-pyrazole-4-carboxamide] |  | 234 nM | 
12 | O=C(Nc1ccc(-n2nccn2)c(C(F)(F)F)c1)c1cnn(-c2cnc3c4c(cccc24)C(=O)N3)c1C1CC1 [Example 83, N-(4-(2H-1,2,3-triazol-2-yl)-3-(trifluoromethyl)phenyl)-5-cyclopropyl-1-(2-oxo-1,2-dihydropyrrolo[4,3,2-ij]isoquinolin-6-yl)-1H-pyrazole-4-carboxamide] | 50 nM |  | 
13 | N#Cc1cc(-n2ncc(C(=O)Nc3ccnc(C(F)(F)F)c3)c2C(F)(F)F)c2cccc3c2c1NC3=O [Example 92, 1-(8-cyano-2-carbonyl-1,2-dihydrobenzo[cd]indol-6-yl)-5-(trifluoromethyl)-N-(2-(trifluoromethyl)pyridin-4-yl)-1H-pyrazole-4-carboxamide] |  | 128 nM | 
